Measurements as given in patent publication US20250206727A1, “HETEROCYCLIC SUBSTITUTED AROMATIC COMPOUND, PREPARATION METHOD THEREFOR, HERBICIDAL COMPOSITION AND APPLICATION” (QINGDAO KINGAGROOT CHEMICAL COMPOUND CO., LTD., priority 2022, published 2025).

Experiments:
Test in all cases: Post-emergence test on weeds (greenhouse, spray at 2-3 leaf stage)
Assay type in all cases: in vivo
Design in all cases: key: Level 10: completely dead; Level 9: growth control rate greater than or equal to 90% and less than 100%; Level 8: growth control rate greater than or equal to 80% and less than 90%; Level 7: growth control rate greater than or equal to 70% and less than 80%; Level 6: growth control rate greater than or equal to 60% and less than 70%; Level 5: growth control rate greater than or equal to 50% and less than 60%; Level 4: growth control rate greater than or equal to 40% and less than 50%; Level 3: growth control rate greater than or equal to 30% and less than 40%; Level 2: growth control rate greater than or equal to 20% and less than 30%; Level 1: growth control rate less than 20%; Level 0: no effect
Conditions in all cases: 60 g a.i./ha, 3 weeks after application
Digitaria sanguinalis = tested on: Digitaria sanguinalis
Source text: (§1) The activity level criteria for plant damage (i.e., growth control rate) are as follows: • Level 10: completely dead; • Level 9: growth control rate greater than or equal to 90% and less than 100%; • Level 8: growth control rate greater than or equal to 80% and less than 90%; • Level 7: growth control rate greater than or equal to 70% and less than 80%; • Level 6: growth control rate greater than or equal to 60% and less than 70%; • Level 5: growth control rate greater than or equal to 50% and less than 60%; • Level 4: growth control rate greater than or equal to 40% and less than 50%; • Level 3: growth control rate greater than or equal to 30% and less than 40%; • Level 2: growth control rate greater than or equal to 20% and less than 30%; • Level 1: growth control rate less than 20%; • Level 0: no effect.
(§2) The above growth control rates are fresh weight control rates.
(§3) Monocotyledonous and dicotyledonous weed seeds (Descurainia sophia, Capsella bursa-pastoris, Abutilon theophrasti, Galium spurium, Stellaria media, Lithospermum arvense, Rorippa indica, Alopecurus aequalis, Alopecurus japonicus, Eleusine indica, Beckmannia syzigachne, Sclerochloa dura, Erigeron canadensis, Phleum paniculatum, Veronica polita, Bromus japonicus, Aegilops tauschii, Phalaris arundinacea, Amaranthus retrofexus, Chenopodium, Commelina communis, Cichorium endivia, Convolvulus arvensis, Cirsium arvense, Solanum nigrum, Acalypha australis, Digitaria sanguinalis, Echinochloa crus-galli, Setaria viridis, Setaa pumila, Lepochloa chinensis, Monochona vaginalis, Sagitta trifolia, Schoenoplectiella juncoides, Cypenus rotundus, Cyperus ira, Cyperus difformis, Fimbristylis, Portulaca oleracea, Xanthium sibiricum, Ipomoea nil, Eschenbachia japonica, etc.) and major crop seeds (wheat, maize, paddy rice, soybean, cotton, oilseed rape, millet, sorghum, potato, sesame, castor plant, etc.) were placed in plastic pots filled with soil and then covered with 0.5-2 cm of soil to allow them to grow in a favorable greenhouse environment. Two weeks after sowing, the test plants were treated at the stage of 2-3 leaves. The test compounds of the present invention were individually dissolved with acetone, then added with Tween® 80, with 1.5 L/ha of methyl oleate emulsifiable concentrate as a synergist, diluted into solutions of certain concentrations using certain amount of water, and sprayed to the plants using a spray tower. After drug application, the experimental results on weeds were collected after 3 weeks of cultivation in a greenhouse. The compounds were applied at 500, 250, […], 15, and 7.5 g a.i./ha in triplicate, and the results were averaged.

Echinochloa crus-galli = tested on: Echinochloa crus-galli
Source text: as §1, §2, §3

Amaranthus retroflexus = tested on: Amaranthus retroflexus
Source text: as §1, §2, §3

Veronica polita = tested on: Veronica polita
Source text: as §1, §2, §3

Setaria viridis = tested on: Setaria viridis
Source text: as §1, §2, §3

Abutilon theophrasti = tested on: Abutilon theophrasti
Source text: as §1, §2, §3

CC1(C(=O)OCc2ccccc2F)ON=C(c2cc(-c3ncc(C(F)(F)F)cc3Cl)c(F)cc2Cl)O1 (racemic) [Compound 133]
10: activity level (fresh weight growth control rate), Digitaria sanguinalis (Digitaria sanguinalis) | activity level (fresh weight growth control rate), Echinochloa crus-galli (Echinochloa crus-galli) | activity level (fresh weight growth control rate), Amaranthus retroflexus (Amaranthus retroflexus) | activity level (fresh weight growth control rate), Veronica polita (Veronica polita) | activity level (fresh weight growth control rate), Setaria viridis (Setaria viridis) | activity level (fresh weight growth control rate), Abutilon theophrasti (Abutilon theophrasti)

CC(C)=NOC(=O)C1(C)ON=C(c2cc(-c3ncc(C(F)(F)F)cc3Cl)c(F)cc2Cl)O1 (racemic) [Compound 137]
10: activity level (fresh weight growth control rate), Digitaria sanguinalis (Digitaria sanguinalis) | activity level (fresh weight growth control rate), Echinochloa crus-galli (Echinochloa crus-galli) | activity level (fresh weight growth control rate), Amaranthus retroflexus (Amaranthus retroflexus) | activity level (fresh weight growth control rate), Veronica polita (Veronica polita) | activity level (fresh weight growth control rate), Setaria viridis (Setaria viridis) | activity level (fresh weight growth control rate), Abutilon theophrasti (Abutilon theophrasti)

CC(=NOC(=O)C1(C)ON=C(c2cc(-c3ncc(C(F)(F)F)cc3Cl)c(F)cc2Cl)O1)C(F)(F)F (racemic) [Compound 139]
10: activity level (fresh weight growth control rate), Digitaria sanguinalis (Digitaria sanguinalis) | activity level (fresh weight growth control rate), Echinochloa crus-galli (Echinochloa crus-galli) | activity level (fresh weight growth control rate), Amaranthus retroflexus (Amaranthus retroflexus) | activity level (fresh weight growth control rate), Veronica polita (Veronica polita) | activity level (fresh weight growth control rate), Setaria viridis (Setaria viridis) | activity level (fresh weight growth control rate), Abutilon theophrasti (Abutilon theophrasti)

CCOC(C)=NOC(=O)C1(C)ON=C(c2cc(-c3ncc(C(F)(F)F)cc3Cl)c(F)cc2Cl)O1 (racemic) [Compound 141]
10: activity level (fresh weight growth control rate), Digitaria sanguinalis (Digitaria sanguinalis) | activity level (fresh weight growth control rate), Echinochloa crus-galli (Echinochloa crus-galli) | activity level (fresh weight growth control rate), Amaranthus retroflexus (Amaranthus retroflexus) | activity level (fresh weight growth control rate), Veronica polita (Veronica polita) | activity level (fresh weight growth control rate), Setaria viridis (Setaria viridis) | activity level (fresh weight growth control rate), Abutilon theophrasti (Abutilon theophrasti)

CC1(C(=O)ON=Cc2ccco2)ON=C(c2cc(-c3ncc(C(F)(F)F)cc3Cl)c(F)cc2Cl)O1 (racemic) [Compound 143]
10: activity level (fresh weight growth control rate), Digitaria sanguinalis (Digitaria sanguinalis) | activity level (fresh weight growth control rate), Echinochloa crus-galli (Echinochloa crus-galli) | activity level (fresh weight growth control rate), Amaranthus retroflexus (Amaranthus retroflexus) | activity level (fresh weight growth control rate), Veronica polita (Veronica polita) | activity level (fresh weight growth control rate), Setaria viridis (Setaria viridis) | activity level (fresh weight growth control rate), Abutilon theophrasti (Abutilon theophrasti)

Cc1ccc(C=NOC(=O)C2(C)ON=C(c3cc(-c4ncc(C(F)(F)F)cc4Cl)c(F)cc3Cl)O2)s1 (racemic) [Compound 144]
10: activity level (fresh weight growth control rate), Digitaria sanguinalis (Digitaria sanguinalis) | activity level (fresh weight growth control rate), Echinochloa crus-galli (Echinochloa crus-galli) | activity level (fresh weight growth control rate), Amaranthus retroflexus (Amaranthus retroflexus) | activity level (fresh weight growth control rate), Veronica polita (Veronica polita) | activity level (fresh weight growth control rate), Setaria viridis (Setaria viridis) | activity level (fresh weight growth control rate), Abutilon theophrasti (Abutilon theophrasti)

CC1(C(=O)ON=C2CCCC2)ON=C(c2cc(-c3ncc(C(F)(F)F)cc3Cl)c(F)cc2Cl)O1 (racemic) [Compound 145]
10: activity level (fresh weight growth control rate), Digitaria sanguinalis (Digitaria sanguinalis) | activity level (fresh weight growth control rate), Echinochloa crus-galli (Echinochloa crus-galli) | activity level (fresh weight growth control rate), Amaranthus retroflexus (Amaranthus retroflexus) | activity level (fresh weight growth control rate), Veronica polita (Veronica polita) | activity level (fresh weight growth control rate), Setaria viridis (Setaria viridis) | activity level (fresh weight growth control rate), Abutilon theophrasti (Abutilon theophrasti)

CC1(C(=O)ON=C(c2ccccc2)c2ccccc2)ON=C(c2cc(-c3ncc(C(F)(F)F)cc3Cl)c(F)cc2Cl)O1 (racemic) [Compound 146]
10: activity level (fresh weight growth control rate), Digitaria sanguinalis (Digitaria sanguinalis) | activity level (fresh weight growth control rate), Echinochloa crus-galli (Echinochloa crus-galli) | activity level (fresh weight growth control rate), Amaranthus retroflexus (Amaranthus retroflexus) | activity level (fresh weight growth control rate), Veronica polita (Veronica polita) | activity level (fresh weight growth control rate), Setaria viridis (Setaria viridis) | activity level (fresh weight growth control rate), Abutilon theophrasti (Abutilon theophrasti)

Cc1cc(C)n(C(=O)C2(C)ON=C(c3cc(-c4ncc(C(F)(F)F)cc4Cl)c(F)cc3Cl)O2)n1 (racemic) [Compound 156]
10: activity level (fresh weight growth control rate), Digitaria sanguinalis (Digitaria sanguinalis) | activity level (fresh weight growth control rate), Echinochloa crus-galli (Echinochloa crus-galli) | activity level (fresh weight growth control rate), Amaranthus retroflexus (Amaranthus retroflexus) | activity level (fresh weight growth control rate), Veronica polita (Veronica polita) | activity level (fresh weight growth control rate), Setaria viridis (Setaria viridis) | activity level (fresh weight growth control rate), Abutilon theophrasti (Abutilon theophrasti)

CC(=NOC(=O)C1(C)ON=C(c2cc(-c3ncc(C(F)(F)F)cc3Cl)c(F)cc2Cl)O1)C1CC1 (racemic) [Compound 172]
10: activity level (fresh weight growth control rate), Digitaria sanguinalis (Digitaria sanguinalis) | activity level (fresh weight growth control rate), Echinochloa crus-galli (Echinochloa crus-galli) | activity level (fresh weight growth control rate), Amaranthus retroflexus (Amaranthus retroflexus) | activity level (fresh weight growth control rate), Veronica polita (Veronica polita) | activity level (fresh weight growth control rate), Setaria viridis (Setaria viridis) | activity level (fresh weight growth control rate), Abutilon theophrasti (Abutilon theophrasti)

CC1(C(=O)O)ON=C(c2cc(-c3ncc(C(F)(F)F)cc3Cl)c(F)cc2Cl)O1 (stereo not drawn) [Compound 1]
10: activity level (fresh weight growth control rate), Digitaria sanguinalis (Digitaria sanguinalis) | activity level (fresh weight growth control rate), Echinochloa crus-galli (Echinochloa crus-galli) | activity level (fresh weight growth control rate), Amaranthus retroflexus (Amaranthus retroflexus) | activity level (fresh weight growth control rate), Veronica polita (Veronica polita) | activity level (fresh weight growth control rate), Setaria viridis (Setaria viridis) | activity level (fresh weight growth control rate), Abutilon theophrasti (Abutilon theophrasti)

COC(=O)C1ON=C(c2cc(-c3ncc(C(F)(F)F)cc3Cl)c(F)cc2Br)O1 (stereo not drawn) [Compound 2]
10: activity level (fresh weight growth control rate), Digitaria sanguinalis (Digitaria sanguinalis) | activity level (fresh weight growth control rate), Echinochloa crus-galli (Echinochloa crus-galli) | activity level (fresh weight growth control rate), Amaranthus retroflexus (Amaranthus retroflexus) | activity level (fresh weight growth control rate), Veronica polita (Veronica polita) | activity level (fresh weight growth control rate), Setaria viridis (Setaria viridis) | activity level (fresh weight growth control rate), Abutilon theophrasti (Abutilon theophrasti)
